According to patent US20060014726A1, “Derivatives of cyclic1, 3- propanediol phosphate and their action in differentiation therapy” (priority 2002, published 2006):

Experiments:
ER-α in T47D cells = experiment: Western blot analysis of ER-α level in T47D cells; assay type: cell-based, human; conditions: 15 μM
Protocol: (§1) Turning to FIG. 1 there are shown Western blot analyses showing the effect of 1,3cPP on the expression level of ER-α. In the ER-α assay, MCF-7 cells were incubated with 1-100 μM 1,3cPP for up to 14 days. The analysis indicates a relative increase in the level of wild type ER-α receptor (MW 70,000) with either an increase in 1,3cPP concentration or time of incubation. On days 6 and 14, a nearly 2-fold and 3-fold increase were observed, respectively (FIGS. 1A, C, D, F). […] This band could be related to one of deleted exons D3-4 (MW 49,000), D4 (MW 54,000), or D7 (MW 51,000) ER-α variants.
Breast Cancer Cells. The human breast cancer MCF-7 cell line were obtained from Prof. […] The absence of Mycoplasma contamination was monitored by a Mycotrim TC test (Irvine Scientific, Santa Ana, Calif.) carried out once every 3 months.
For ER-α protein analysis, MCF-7 and T47D cells were cultured in 60×15 mm petri dishes. […] The protein concentration in each sample (1.5-4 mg/ml) was determined using the Coomassie Protein Assay (Pierce, Rockford, Ill.) according to the manufacturer's instructions. […] Bound antibodies were detected by horseradish peroxidase-conjugated goat anti-rabbit IgG, (Transduction Laboratories, Lexington, Ky. using the ECL detection method. Band densities were quantified by densitometry (Biorad model GS-690 Imaging densitometer) using Molecular Analyst software.

[1] = tested on: estrogen receptor-α (ER-α) in MCF-7 cells; experiment: Western blot analysis of ER-α level in MCF-7 cells; assay type: cell-based, human; conditions: MCF-7 cells; for increase in the level of wild type ER-α receptor (MW 70,000): 1-100 μM 1,3cPP
Protocol: as §1
Breast Cancer Cells. The human breast cancer MCF-7 cell line were obtained from Prof. Hadassa Degani, of Weizmann Institute of Science, Rehovot, Israel. The cells were grown as monolayers in high glucose DMEM supplemented with 6% fetal calf serum and combined antibiotics. Human breast cancer T47D cells, clones 8 (ER^loPR^lo) and 11 (ER^+PR^+) were obtained from Prof Iafa Keydar, Tel-Aviv university and were grown in DMEM supplemented with 10% fetakl calf serum antibiotics. K562 erythroleukemia cells were obtained from Dr. Alfa Peled of Weizmann Institute of Science, Rehovot, Israel. These cells were grown in RPMI 1640 containing 10% fetal calf serum and antibiotics. All lines were grown at 37° C. in the presence of 5% CO2. The absence of Mycoplasma contamination was monitored by a Mycotrim TC test (Irvine Scientific, Santa Ana, Calif.) carried out once every 3 months.
For ER-α protein analysis, MCF-7 and T47D cells were cultured in 60×15 mm petri dishes. From the second day of culture onward, the cells were treated with various concentrations of 1,3cPP for up to 14 days. At the end of the incubation period, the medium was aspirated and the cells were washed 3 times with cold (4° C.) PBS. The cells were then gently scraped off using a rubber policeman in 0.25 ml of lysis buffer composed of 50 mM β-glycerophosphate, 1 mM DTT, 1.5 mM EGTA, 1 mM EDTA, 1% (Octylphenoxy)polyethoxyethanol (IGEPAL, Sigma, St. Louis, Mo.), a nonionic detergent, and a cocktail of protease inhibitors, including 1 mM phenylmethylsulfonyl fluoride (PMSF), 1 mM benzamidine, 10 μg/ml aprotinin, 10 μg/ml leupeptin, and 2 μg/ml pepstanin, as well as 1 mM sodium orthovanadate (Sigma, St. Louis, Mo.) as a phosphatase inhibitor. […] The protein concentration in each sample (1.5-4 mg/ml) was determined using the Coomassie Protein Assay (Pierce, Rockford, Ill.) according to the manufacturer's instructions. […] Bound antibodies were detected by horseradish peroxidase-conjugated goat anti-rabbit IgG, (Transduction Laboratories, Lexington, Ky. using the ECL detection method. Band densities were quantified by densitometry (Biorad model GS-690 Imaging densitometer) using Molecular Analyst software.

## O=P1(O)OCCCO1 [1,3-cPP, 1,3-cyclic propanediol phosphate]
ER-α in T47D cells; T47D (ER+PR+) clone 11 cells, 6 days
  level of wild type ER-α receptor: sharp increase
ER-α in T47D cells; T47D clone 8 (ERlo PRlo), 3 days incubation
  expression of variant ER-α (MW≈40,000): sharp increase
[1]; day 6, Western blot densitometry
  increase in the level of wild type ER-α receptor (MW 70,000): ~2 fold
[1]; day 14, Western blot densitometry
  increase in the level of wild type ER-α receptor (MW 70,000): ~3 fold
[1]; day 11, Western blot
  increase in the intensity of a ER variant with an approximate MW of 50,000: 5 fold
